Laboratory results from USRE46943E1, “Radioprotector compounds and methods” (PETER MACCALLUM CANCER INSTITUTE, priority 2010, dated 2018).

Experiments:
[1] = test system: transformed human keratinocyte cell line (FEP 1811); assay: Clonogenic survival cell culture assay for radioprotective activity (12 Gy 137Cs gamma irradiation); assay type: cell-based; details: 12 Gy; for DMF10 (dose modification factor at a concentration of 10 microM of radioprotector): 10 microM radioprotector; for DMFm (dose modification factor at maximum protection): DMF=Dp/Dc at survival level Sm; for PF (protection factor = Sm/So): survival at maximum protection vs irradiation only
Outline: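 Survival after irradiation gave protection factor PF = Sm/So (maximum-protection survival over irradiation-only survival). DMF = Dp/Dc is the ratio of doses giving survival Sm with and without radioprotector. DMF10 uses survival at 10 microM radioprotector in place of Sm.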

[2] = test system: transformed human keratinocyte cell line (FEP 1811); assay: Clonogenic survival cell culture assay for cytotoxicity; assay type: cell-based; details: Homo sapiens, Keratinocyte, light or radiation study; un-irradiated keratinocytes, one hour drug exposure, colonies counted after eight days; read-out: C50 (concentration of radioprotector that results in 50% clonogenic survival)
Outline: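 Mid-log monolayers exposed to test drug for 1 h, then pronase-dispersed and plated; colonies counted after 8 days. For […], irradiation at 0.6 Gy per minute began 30 min after drug addition, with total drug exposure held at 60 min before plating for clonogenic survival.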

## OC1CCN(c2ccc3nc(-c4ccc5nc(-c6ccccn6)[nH]c5c4)[nH]c3c2)CC1 [Example 22, 2-(5′-(5″-(4′″-Hydroxypiperidin-1′″-yl)benzimidazol-2″-yl)benzimidazol-2′-yl)pyridine]
other
  melting point: 226 to 229 °C
[1]
  DMF10 (dose modification factor at a concentration of 10 microM of radioprotector): 1.47
  DMFm (dose modification factor at maximum protection): 2.20
  PF (protection factor = Sm/So): 21.3
[2]
  IC50: 266 µM

## c1ccc(-c2nc3ccc(-c4nc5ccc(N6CCCCC6)cc5[nH]4)cc3[nH]2)nc1 [Example 24, 2-(5′-(5″-(Piperidin-1′″-yl)benzimidazol-2″-yl)benzimidazol-2′-yl)pyridine]
other
  melting point: 196 to 203 °C
[1]
  DMF10 (dose modification factor at a concentration of 10 microM of radioprotector): 1.35
  DMFm (dose modification factor at maximum protection): 1.42
  PF (protection factor = Sm/So): 7.5
[2]
  IC50: 24 µM

## CN1CCCN(c2ccc3nc(-c4ccc5nc(-c6ccccn6)[nH]c5c4)[nH]c3c2)CC1 [Example 25, 2-(5′-(5″-(4′″-Methyl-1′″,4′″-diazepan-1′″-yl)benzimidazol-2″-yl)benzimidazol-2′-yl)pyridine]
other
  melting point: 185 °C (dec.)
[1]
  DMF10 (dose modification factor at a concentration of 10 microM of radioprotector): 1.77
  DMFm (dose modification factor at maximum protection): 2.14
  PF (protection factor = Sm/So): 16.7
[2]
  IC50: 123 µM

## OC1CCCN(c2ccc3nc(-c4ccc5nc(-c6ccccn6)[nH]c5c4)[nH]c3c2)C1 (stereo not shown) [Example 26, 2-(5′-(5″-(3′″-Hydroxypiperidin-1′″-yl)benzimidazol-2″-yl)benzimidazol-2′-yl)pyridine]
other
  melting point: 278 to 282 °C
[1]
  DMF10 (dose modification factor at a concentration of 10 microM of radioprotector): 1.33
  DMFm (dose modification factor at maximum protection): 1.90
  PF (protection factor = Sm/So): 14.7
[2]
  IC50: 77.9 µM

## CN(C)c1ccc2nc(-c3ccc4nc(-c5ccccn5)[nH]c4c3)[nH]c2c1 [Example 28, 2-(5′-(5″-(Dimethylamino)benzimidazol-2″-yl)benzimidazol-2′-yl)pyridine]
other
  melting point: 180 °C (dec.)
[1]
  DMF10 (dose modification factor at a concentration of 10 microM of radioprotector): 1.30
  DMFm (dose modification factor at maximum protection): 1.57
  PF (protection factor = Sm/So): 13.5
[2]
  IC50: 60.8 µM

## CN(C)C1CCN(c2ccc3nc(-c4ccc5nc(-c6ccccn6)[nH]c5c4)[nH]c3c2)CC1 [Example 29, 2-(5′-(5″-(4′″-(Dimethylamino)piperidin-1′″-yl)benzimidazol-2″-yl)benzimidazol-2′-yl)pyridine]
other
  melting point: 198 to 205 °C
[1]
  DMF10 (dose modification factor at a concentration of 10 microM of radioprotector): 1.54
  DMFm (dose modification factor at maximum protection): 1.76
  PF (protection factor = Sm/So): 18.2
[2]
  IC50: 46.9 µM

## COc1cc(-c2nc3cc(N4CCN(C)CC4)ccc3[nH]2)cc2nc(-c3ccccn3)[nH]c12 [Example 30, 2-(4′-Methoxy-6′-(5″-(4′″-methylpiperazin-1′″-yl)benzimidazol-2″-yl)benzimidazol-2′-yl)pyridine]
other
  melting point: 200 °C (dec.)
[1]
  DMF10 (dose modification factor at a concentration of 10 microM of radioprotector): 1.78
  DMFm (dose modification factor at maximum protection): 1.97
  PF (protection factor = Sm/So): 13.3
[2]
  IC50: 158 µM

## CN1CCN(c2ccc3nc(-c4ccc5cc(-c6ccccn6)[nH]c5c4)[nH]c3c2)CC1 [Example 31, 2-(6′-(5″-(4′″-Methylpiperazin-1′″-yl)benzimidazol-2″-yl)indol-2′-yl)pyridine]
other
  melting point: 245 to 247 °C
[1]
  DMF10 (dose modification factor at a concentration of 10 microM of radioprotector): 2.09
  DMFm (dose modification factor at maximum protection): 2.20
  PF (protection factor = Sm/So): 22.8
[2]
  IC50: 19.8 µM

## COc1cc2nc(-c3ccccn3)[nH]c2cc1-c1nc2ccc(N3CCN(C)CC3)cc2[nH]1 [Example 32, 2-(5′-methoxy-6′-(5″-(4′″-methylpiperazin-1′″-yl)benzimidazol-2″-yl)benzimidazol-2′-yl)pyridine]
other
  melting point: 190 to 195 °C
[1]
  DMF10 (dose modification factor at a concentration of 10 microM of radioprotector): 1.32
  DMFm (dose modification factor at maximum protection): 1.56
  PF (protection factor = Sm/So): 23.6
[2]
  IC50: 112 µM

## COCCN(C)c1ccc2[nH]c(-c3ccc4[nH]c(-c5ccccn5)nc4c3)nc2c1 [Example 38, 2-(5′-(5″-((2′″-Methoxyethyl)(methyl)amino)benzimidazol-2″-yl)benzimidazol-2′-yl)pyridine]
other
  melting point: 150 to 155 °C
[1]
  DMF10 (dose modification factor at a concentration of 10 microM of radioprotector): 1.32
  DMFm (dose modification factor at maximum protection): 1.55
  PF (protection factor = Sm/So): 8.8
[2]
  IC50: 41.2 µM

## COCCOCCNc1ccc2nc(-c3ccc4nc(-c5ccccn5)[nH]c4c3)[nH]c2c1 [Example 39, 2-(5′-(5″-(2′″-(2″″-methoxyethoxy)ethylamino)benzimidazol-2″-yl)benzimidazol-2′-yl)pyridine]
other
  melting point: 183 to 186 °C
[1]
  DMF10 (dose modification factor at a concentration of 10 microM of radioprotector): 1.50
  DMFm (dose modification factor at maximum protection): 2.70
  PF (protection factor = Sm/So): 171.5
[2]
  IC50: 173 µM

## OCCN1CCN(c2ccc3nc(-c4ccc5nc(-c6ccccn6)[nH]c5c4)[nH]c3c2)CC1 [Example 41, 2-(5′-(5″-(4′″-(2″″-hydroxyethyl)piperazin-1′″-yl)benzimidazol-2″-yl)benzimidazol-2′-yl)pyridine]
other
  melting point: 218 to 221 °C
[1]
  DMF10 (dose modification factor at a concentration of 10 microM of radioprotector): 1.44
  DMFm (dose modification factor at maximum protection): 1.95
  PF (protection factor = Sm/So): 19.6
[2]
  IC50: 90.6 µM

## c1ccc(-c2nc3ccc(-c4nc5ccc(NN6CCOCC6)cc5[nH]4)cc3[nH]2)nc1 [Example 42, 2-(5′-(5″-(morpholinoamino)benzimidazol-2″-yl)benzimidazol-2′-yl)pyridine]
other
  melting point: 198 to 205 °C
[1]
  DMF10 (dose modification factor at a concentration of 10 microM of radioprotector): 1.38
  DMFm (dose modification factor at maximum protection): 1.86
  PF (protection factor = Sm/So): 17.8
[2]
  IC50: 206 µM

## CN1CCN(c2ccc3nc(-c4ccc5nc(-c6cc(C(F)(F)F)ccn6)[nH]c5c4)[nH]c3c2)CC1 [Example 48, 2-(5′-(5″-(4′″-methylpiperazin-1′″-yl)benzimidazol-2″-yl)benzimidazol-2′-yl)-4-(trifluoromethyl)pyridine]
other
  melting point: 203 to 208 °C
[1]
  DMF10 (dose modification factor at a concentration of 10 microM of radioprotector): 2.58
  DMFm (dose modification factor at maximum protection): 2.75
  PF (protection factor = Sm/So): 63.8
[2]
  IC50: 23.3 µM

## CN1CCN(c2ccc3nc(-c4ccc5nc(-c6ccc(C(F)(F)F)cn6)[nH]c5c4)[nH]c3c2)CC1 [Example 49, 2-(5′-(5″-(4′″-methylpiperazin-1′″-yl)benzimidazol-2″-yl)benzimidazol-2′-yl)-5-(trifluoromethyl)pyridine]
other
  melting point: 320 °C (dec.)
[1]
  DMF10 (dose modification factor at a concentration of 10 microM of radioprotector): 2.21
  DMFm (dose modification factor at maximum protection): 2.38
  PF (protection factor = Sm/So): 33.1
[2]
  IC50: 12.2 µM

## Cc1ccnc(-c2nc3ccc(-c4nc5ccc(N6CCC(O)CC6)cc5[nH]4)cc3[nH]2)c1 [Example 50, 2-(5′-(5″-(4′″-hydroxypiperidin-1′″-yl)benzimidazol-2″-yl)benzimidazol-2′-yl)-4-methylpyridine]
other
  melting point: 204 to 209 °C
[1]
  DMF10 (dose modification factor at a concentration of 10 microM of radioprotector): 1.33
  DMFm (dose modification factor at maximum protection): 1.79
  PF (protection factor = Sm/So): 23.5
[2]
  IC50: 134 µM

## Cc1ccc(-c2nc3ccc(-c4nc5ccc(N6CCC(O)CC6)cc5[nH]4)cc3[nH]2)nc1 [Example 51, 2-(5′-(5″-(4′″-hydroxypiperidin-1′″-yl)benzimidazol-2″-yl)benzimidazol-2′-yl)-5-methylpyridine]
other
  melting point: 208 to 213 °C
[1]
  DMF10 (dose modification factor at a concentration of 10 microM of radioprotector): 1.90
  DMFm (dose modification factor at maximum protection): 2.07
  PF (protection factor = Sm/So): 58.7
[2]
  IC50: 124 µM
